The target of assay [1] is T1, Serine/threonine-protein kinase 4 (Homo sapiens) (UniProt Q13043).
T1 sequence (whole entry): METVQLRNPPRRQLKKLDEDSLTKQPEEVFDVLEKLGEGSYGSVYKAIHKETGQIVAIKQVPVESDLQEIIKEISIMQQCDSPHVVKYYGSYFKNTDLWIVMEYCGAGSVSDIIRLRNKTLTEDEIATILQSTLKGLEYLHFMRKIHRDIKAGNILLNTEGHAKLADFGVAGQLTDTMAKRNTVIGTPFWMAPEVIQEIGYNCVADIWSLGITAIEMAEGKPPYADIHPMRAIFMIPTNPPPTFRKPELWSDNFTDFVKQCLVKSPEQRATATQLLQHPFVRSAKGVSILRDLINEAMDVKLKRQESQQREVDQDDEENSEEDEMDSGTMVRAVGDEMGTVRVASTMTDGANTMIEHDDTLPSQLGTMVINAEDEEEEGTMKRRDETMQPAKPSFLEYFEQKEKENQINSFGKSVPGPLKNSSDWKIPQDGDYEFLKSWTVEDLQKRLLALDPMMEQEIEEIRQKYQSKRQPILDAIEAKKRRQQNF
The experiment in a line: Inhibition of STK4 (unknown origin) using fluorescein-labelled Ser/Thr-07 peptide as substrate incubated for 1 hr in presence of ATP at Km concentration by Z-LYTE assay.

Assay [2] has as its target Tyrosine-protein kinase Fyn (Homo sapiens) (UniProt P06241). The experiment in a line: Inhibition of FYN in human NCI-H929 cells at 10 uM by mass spectroscopic analysis relative to control. In kind it is cell-based.
The target of assay [3] is Proto-oncogene tyrosine-protein kinase Src (Homo sapiens) (UniProt P12931). The experiment in a line: Inhibition of SRC in human NCI-H929 cells at 10 uM by mass spectroscopic analysis relative to control. In kind it is cell-based.
The target in assay [4] is Tyrosine-protein kinase Yes (Homo sapiens) (UniProt P07947). The experiment in a line: Inhibition of YES in human NCI-H929 cells at 10 uM by mass spectroscopic analysis relative to control. In kind it is cell-based.
For assay [5], the target named is T2, Kinase suppressor of Ras 1 (Homo sapiens) (UniProt Q8IVT5).
T2 sequence (whole entry): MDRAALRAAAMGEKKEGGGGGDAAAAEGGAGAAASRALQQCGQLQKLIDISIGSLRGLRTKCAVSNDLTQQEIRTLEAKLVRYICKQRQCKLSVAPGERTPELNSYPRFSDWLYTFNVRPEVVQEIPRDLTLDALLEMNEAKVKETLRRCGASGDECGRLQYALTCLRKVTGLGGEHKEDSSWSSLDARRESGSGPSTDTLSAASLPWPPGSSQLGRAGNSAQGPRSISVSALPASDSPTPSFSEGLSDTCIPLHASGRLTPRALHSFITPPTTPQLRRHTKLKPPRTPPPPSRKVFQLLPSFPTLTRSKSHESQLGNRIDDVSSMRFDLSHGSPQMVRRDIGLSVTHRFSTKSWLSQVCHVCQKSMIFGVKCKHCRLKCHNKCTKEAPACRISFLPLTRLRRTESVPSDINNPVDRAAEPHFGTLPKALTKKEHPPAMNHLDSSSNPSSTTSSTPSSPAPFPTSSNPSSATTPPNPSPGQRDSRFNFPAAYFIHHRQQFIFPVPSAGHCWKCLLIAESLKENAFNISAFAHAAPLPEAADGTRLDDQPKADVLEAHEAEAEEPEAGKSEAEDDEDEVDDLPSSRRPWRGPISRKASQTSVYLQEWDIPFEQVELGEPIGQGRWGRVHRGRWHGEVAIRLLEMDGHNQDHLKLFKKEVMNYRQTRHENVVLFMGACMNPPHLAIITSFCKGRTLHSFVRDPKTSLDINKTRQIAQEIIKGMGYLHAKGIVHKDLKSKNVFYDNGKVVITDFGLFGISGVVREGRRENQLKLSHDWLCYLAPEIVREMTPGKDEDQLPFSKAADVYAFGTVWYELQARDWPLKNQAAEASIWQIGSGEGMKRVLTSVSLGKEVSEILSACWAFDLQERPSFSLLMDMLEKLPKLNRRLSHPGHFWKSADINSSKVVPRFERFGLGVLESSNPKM
The experiment in a line: Inhibition of KSR1 in human NCI-H929 cells at 10 uM by mass spectroscopic analysis relative to control. In kind it is cell-based.

For assay [6], the target named is MAP kinase-activated protein kinase 3 (Homo sapiens) (UniProt Q16644). Nature of the assay: Inhibition of MAPKAPK3 in human NCI-H929 cells at 10 uM by mass spectroscopic analysis relative to control. In kind it is cell-based.
Assay [7] deals with Serine/threonine-protein kinase Nek6 (Homo sapiens) (UniProt Q9HC98). Nature of the assay: Inhibition of NEK6 in human NCI-H929 cells at 10 uM by mass spectroscopic analysis relative to control. In kind it is cell-based.
Serine/threonine-protein kinase Nek6 (Homo sapiens), sequence (Q9HC98 whole entry): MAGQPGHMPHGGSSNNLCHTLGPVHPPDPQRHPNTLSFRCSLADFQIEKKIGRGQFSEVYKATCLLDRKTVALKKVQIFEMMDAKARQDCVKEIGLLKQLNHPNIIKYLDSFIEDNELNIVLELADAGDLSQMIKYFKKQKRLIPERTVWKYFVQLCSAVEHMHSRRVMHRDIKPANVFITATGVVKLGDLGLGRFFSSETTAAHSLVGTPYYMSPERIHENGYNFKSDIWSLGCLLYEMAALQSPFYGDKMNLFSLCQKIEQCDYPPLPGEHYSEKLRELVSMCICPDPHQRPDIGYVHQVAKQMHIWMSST
For assay [8], the target named is T3, Mitogen-activated protein kinase 13 (Homo sapiens) (UniProt O15264).
T3 sequence (whole entry): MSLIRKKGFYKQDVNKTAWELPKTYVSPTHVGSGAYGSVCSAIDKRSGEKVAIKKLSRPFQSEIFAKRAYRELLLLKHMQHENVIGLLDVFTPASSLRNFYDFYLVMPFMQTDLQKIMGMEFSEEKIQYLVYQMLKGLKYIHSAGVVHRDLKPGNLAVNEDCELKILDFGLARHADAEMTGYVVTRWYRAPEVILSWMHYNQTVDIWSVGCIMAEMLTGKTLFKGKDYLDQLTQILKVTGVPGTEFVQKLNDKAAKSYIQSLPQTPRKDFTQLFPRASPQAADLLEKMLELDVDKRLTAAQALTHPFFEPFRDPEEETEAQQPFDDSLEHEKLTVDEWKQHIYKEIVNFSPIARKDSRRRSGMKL
The experiment in a line: Inhibition of P38delta in human NCI-H929 cells at 10 uM by mass spectroscopic analysis relative to control. In kind it is cell-based.

Assay [9] deals with Phosphatidylinositol 4-kinase alpha (Homo sapiens) (UniProt P42356). Nature of the assay: Inhibition of PI4KA in human NCI-H929 cells at 10 uM by mass spectroscopic analysis relative to control. In kind it is cell-based.
The target in assay [10] is Putative phosphatidylinositol 4-kinase alpha-like protein P2 (Homo sapiens) (UniProt A4QPH2). The experiment in a line: Inhibition of PI4KAP2 in human NCI-H929 cells at 10 uM by mass spectroscopic analysis relative to control. In kind it is cell-based.
Putative phosphatidylinositol 4-kinase alpha-like protein P2 (Homo sapiens), sequence (A4QPH2 whole entry): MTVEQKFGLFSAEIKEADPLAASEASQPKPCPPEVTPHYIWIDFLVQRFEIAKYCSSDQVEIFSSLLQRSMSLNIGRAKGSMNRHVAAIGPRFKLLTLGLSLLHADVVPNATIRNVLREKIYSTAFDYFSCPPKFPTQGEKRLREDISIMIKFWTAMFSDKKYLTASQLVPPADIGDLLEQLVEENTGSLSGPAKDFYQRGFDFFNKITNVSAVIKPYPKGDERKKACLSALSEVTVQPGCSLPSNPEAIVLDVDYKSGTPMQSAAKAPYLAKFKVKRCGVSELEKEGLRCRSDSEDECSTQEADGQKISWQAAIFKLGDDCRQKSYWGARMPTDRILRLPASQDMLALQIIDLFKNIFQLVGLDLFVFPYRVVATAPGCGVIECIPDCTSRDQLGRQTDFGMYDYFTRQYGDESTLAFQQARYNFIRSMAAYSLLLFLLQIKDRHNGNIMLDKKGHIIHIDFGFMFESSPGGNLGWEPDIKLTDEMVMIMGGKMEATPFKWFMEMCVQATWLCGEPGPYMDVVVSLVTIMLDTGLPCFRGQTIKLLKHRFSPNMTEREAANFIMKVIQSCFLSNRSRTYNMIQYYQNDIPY
Assay [11] has as its target Serine/threonine-protein kinase WNK1 (Homo sapiens) (UniProt Q9H4A3). The experiment in a line: Inhibition of WNK1 in human NCI-H929 cells at 10 uM by mass spectroscopic analysis relative to control. In kind it is cell-based.
Assay [12] concerns the target Serine/threonine-protein kinase WNK2 (Homo sapiens) (UniProt Q9Y3S1). The experiment in a line: Inhibition of WNK2 in human NCI-H929 cells at 10 uM by mass spectroscopic analysis relative to control. In kind it is cell-based.
In assay [13] the target is Serine/threonine-protein kinase WNK3 (Homo sapiens) (UniProt Q9BYP7). The experiment in a line: Inhibition of WNK3 in human NCI-H929 cells at 10 uM by mass spectroscopic analysis relative to control. In kind it is cell-based.
Assay [14] has as its target Mitogen-activated protein kinase kinase kinase kinase 4 (Homo sapiens) (UniProt O95819). The experiment in a line: Inhibition of HGK in human NCI-H929 cells at 10 uM by mass spectroscopic analysis relative to control. In kind it is cell-based.
Assay [15] deals with TRAF2 and NCK-interacting protein kinase (Homo sapiens) (UniProt Q9UKE5). Nature of the assay: Inhibition of TNIK in human NCI-H929 cells at 10 uM by mass spectroscopic analysis relative to control. In kind it is cell-based.

The structures appear in SMILES notation. pIC50: −log10 of the molar value.

Tyrosine-protein kinase Fyn (Homo sapiens), sequence (P06241 2-537 limits assumed): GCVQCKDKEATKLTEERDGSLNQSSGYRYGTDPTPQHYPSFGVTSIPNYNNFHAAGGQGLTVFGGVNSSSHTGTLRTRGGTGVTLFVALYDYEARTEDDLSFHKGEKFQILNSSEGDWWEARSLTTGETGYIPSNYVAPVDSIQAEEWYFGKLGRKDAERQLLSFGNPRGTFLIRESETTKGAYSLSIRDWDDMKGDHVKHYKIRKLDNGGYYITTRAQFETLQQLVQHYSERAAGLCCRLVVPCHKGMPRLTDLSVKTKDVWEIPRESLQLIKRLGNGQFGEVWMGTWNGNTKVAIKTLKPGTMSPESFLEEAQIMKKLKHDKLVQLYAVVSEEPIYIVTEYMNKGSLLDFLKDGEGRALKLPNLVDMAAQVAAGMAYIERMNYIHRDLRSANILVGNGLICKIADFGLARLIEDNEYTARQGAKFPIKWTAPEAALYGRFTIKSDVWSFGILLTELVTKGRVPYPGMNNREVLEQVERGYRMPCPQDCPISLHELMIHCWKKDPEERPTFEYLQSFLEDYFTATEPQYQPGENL
Serine/threonine-protein kinase WNK1 (Homo sapiens), sequence (Q9H4A3 whole entry, looked up): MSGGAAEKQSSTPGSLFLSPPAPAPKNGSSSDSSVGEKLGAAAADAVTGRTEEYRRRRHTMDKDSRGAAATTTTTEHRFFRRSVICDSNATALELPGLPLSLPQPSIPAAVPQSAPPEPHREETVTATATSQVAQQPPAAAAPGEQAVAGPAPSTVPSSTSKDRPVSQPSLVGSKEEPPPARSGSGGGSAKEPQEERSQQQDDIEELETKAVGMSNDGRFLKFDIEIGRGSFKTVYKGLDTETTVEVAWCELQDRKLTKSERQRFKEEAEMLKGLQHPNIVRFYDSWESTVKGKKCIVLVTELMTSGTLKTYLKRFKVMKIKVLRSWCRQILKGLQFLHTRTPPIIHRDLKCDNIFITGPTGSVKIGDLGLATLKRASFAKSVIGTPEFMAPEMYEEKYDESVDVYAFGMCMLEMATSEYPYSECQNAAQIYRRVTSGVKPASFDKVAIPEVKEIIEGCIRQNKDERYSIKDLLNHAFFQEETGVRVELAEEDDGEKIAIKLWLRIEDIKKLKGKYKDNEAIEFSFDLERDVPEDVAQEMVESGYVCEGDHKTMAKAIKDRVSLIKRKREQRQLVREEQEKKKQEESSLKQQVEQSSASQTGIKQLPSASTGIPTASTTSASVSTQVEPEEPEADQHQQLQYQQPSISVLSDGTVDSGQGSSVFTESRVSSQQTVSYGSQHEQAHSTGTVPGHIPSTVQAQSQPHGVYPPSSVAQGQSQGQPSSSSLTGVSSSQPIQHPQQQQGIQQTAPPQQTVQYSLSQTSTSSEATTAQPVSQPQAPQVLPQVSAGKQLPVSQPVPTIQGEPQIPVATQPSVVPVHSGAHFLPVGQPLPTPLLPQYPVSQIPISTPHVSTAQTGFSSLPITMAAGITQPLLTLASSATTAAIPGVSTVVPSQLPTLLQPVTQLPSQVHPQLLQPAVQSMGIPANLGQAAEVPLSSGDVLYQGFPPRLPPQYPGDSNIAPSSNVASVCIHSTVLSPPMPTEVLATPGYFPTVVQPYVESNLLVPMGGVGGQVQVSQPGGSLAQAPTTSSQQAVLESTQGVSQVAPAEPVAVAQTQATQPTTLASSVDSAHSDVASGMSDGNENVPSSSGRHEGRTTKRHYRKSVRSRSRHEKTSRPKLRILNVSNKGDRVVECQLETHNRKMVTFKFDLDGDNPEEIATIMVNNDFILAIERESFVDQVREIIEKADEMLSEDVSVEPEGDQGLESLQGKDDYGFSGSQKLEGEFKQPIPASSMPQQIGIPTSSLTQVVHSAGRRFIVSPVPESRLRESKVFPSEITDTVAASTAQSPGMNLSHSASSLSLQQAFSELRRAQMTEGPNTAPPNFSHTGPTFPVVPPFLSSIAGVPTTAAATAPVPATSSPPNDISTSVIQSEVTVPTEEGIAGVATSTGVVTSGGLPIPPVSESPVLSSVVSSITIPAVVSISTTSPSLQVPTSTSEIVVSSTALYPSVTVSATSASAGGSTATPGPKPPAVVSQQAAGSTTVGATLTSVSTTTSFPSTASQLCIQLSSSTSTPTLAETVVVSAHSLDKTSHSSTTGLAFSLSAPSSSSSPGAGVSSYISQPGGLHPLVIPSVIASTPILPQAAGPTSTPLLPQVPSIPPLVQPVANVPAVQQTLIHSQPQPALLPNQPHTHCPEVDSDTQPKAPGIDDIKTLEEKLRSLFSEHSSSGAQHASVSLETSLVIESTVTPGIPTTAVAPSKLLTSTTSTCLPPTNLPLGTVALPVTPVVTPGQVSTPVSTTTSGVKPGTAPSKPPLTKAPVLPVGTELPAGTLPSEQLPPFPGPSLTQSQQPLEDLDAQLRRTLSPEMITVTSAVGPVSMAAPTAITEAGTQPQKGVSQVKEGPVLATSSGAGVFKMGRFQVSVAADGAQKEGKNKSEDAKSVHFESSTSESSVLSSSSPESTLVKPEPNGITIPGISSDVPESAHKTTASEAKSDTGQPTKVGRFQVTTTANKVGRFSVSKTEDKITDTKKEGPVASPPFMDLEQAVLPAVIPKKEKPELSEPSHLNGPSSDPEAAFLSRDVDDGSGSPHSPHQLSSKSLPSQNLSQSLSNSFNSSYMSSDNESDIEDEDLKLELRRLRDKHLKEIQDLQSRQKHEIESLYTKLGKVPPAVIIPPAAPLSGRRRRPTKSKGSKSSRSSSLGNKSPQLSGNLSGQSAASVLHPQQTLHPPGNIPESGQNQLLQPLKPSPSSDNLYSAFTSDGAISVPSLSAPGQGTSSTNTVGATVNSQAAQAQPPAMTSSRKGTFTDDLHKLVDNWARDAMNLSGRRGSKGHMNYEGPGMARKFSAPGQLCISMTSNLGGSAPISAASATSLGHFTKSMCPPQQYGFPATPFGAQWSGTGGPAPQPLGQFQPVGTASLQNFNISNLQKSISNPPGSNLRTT
Mitogen-activated protein kinase kinase kinase kinase 4 (Homo sapiens), sequence (O95819 2-1239 limits assumed): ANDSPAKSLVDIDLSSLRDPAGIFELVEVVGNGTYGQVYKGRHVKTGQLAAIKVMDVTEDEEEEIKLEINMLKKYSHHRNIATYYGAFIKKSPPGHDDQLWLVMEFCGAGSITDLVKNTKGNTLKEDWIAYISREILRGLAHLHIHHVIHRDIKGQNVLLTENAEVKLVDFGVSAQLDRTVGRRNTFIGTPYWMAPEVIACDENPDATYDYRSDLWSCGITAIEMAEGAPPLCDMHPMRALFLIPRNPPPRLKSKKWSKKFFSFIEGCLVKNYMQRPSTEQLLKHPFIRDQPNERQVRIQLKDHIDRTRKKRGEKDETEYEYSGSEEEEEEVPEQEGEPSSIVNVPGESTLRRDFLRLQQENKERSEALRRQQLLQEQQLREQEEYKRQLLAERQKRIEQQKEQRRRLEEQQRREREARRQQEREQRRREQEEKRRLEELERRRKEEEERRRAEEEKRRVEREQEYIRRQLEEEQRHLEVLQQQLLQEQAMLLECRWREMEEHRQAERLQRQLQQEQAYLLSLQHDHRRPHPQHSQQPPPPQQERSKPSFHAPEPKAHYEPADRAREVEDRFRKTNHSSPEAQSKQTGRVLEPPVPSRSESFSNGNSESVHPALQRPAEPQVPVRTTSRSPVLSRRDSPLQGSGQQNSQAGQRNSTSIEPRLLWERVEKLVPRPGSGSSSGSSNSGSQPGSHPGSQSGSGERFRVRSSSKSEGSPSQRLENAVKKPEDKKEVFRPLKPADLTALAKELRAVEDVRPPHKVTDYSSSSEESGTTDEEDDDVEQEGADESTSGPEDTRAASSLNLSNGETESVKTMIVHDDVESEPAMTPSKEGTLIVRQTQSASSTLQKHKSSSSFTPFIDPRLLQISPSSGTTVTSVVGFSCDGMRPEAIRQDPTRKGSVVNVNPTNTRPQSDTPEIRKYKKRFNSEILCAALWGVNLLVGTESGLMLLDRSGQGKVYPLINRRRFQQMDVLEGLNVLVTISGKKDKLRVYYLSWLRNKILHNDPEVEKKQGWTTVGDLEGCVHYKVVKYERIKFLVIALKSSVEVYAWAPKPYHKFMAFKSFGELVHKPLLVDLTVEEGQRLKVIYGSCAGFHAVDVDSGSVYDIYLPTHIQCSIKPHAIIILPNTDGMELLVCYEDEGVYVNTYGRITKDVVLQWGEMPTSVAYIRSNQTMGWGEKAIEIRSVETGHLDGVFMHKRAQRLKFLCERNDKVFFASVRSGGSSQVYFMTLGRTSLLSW

Take `COc1cc(NS(=O)(=O)C2CC2)ccc1-c1cnc(N)c(-c2ccc3c(c2)CCNC3=O)c1`: the pIC50 in [1] is over 7.40. Moreover, the inhibition is 0% in assay [2]; 0% in assay [3]; over 90% in [4]; 0% in [5]; 0% in assay [6]; 0% in [7]. In addition, the inhibition in assay [8], in [9], in assay [10], in [11], in [12] and in assay [13] was 0% in each case. For the same molecule, the inhibition in assay [14] and in [15] was over 90% in each case.

As to `Nc1ncc(-c2cccc3ncsc23)cc1-c1ccc2c(c1)CCNC2=O`, in assay [1], the pIC50 is over 7.40. The inhibition in [2], in assay [3], in assay [4], in assay [5], in assay [6] and in [7] was 0% each time. Also, the inhibition in assay [8], in [9], in assay [10], in assay [11], in [12] and in [13] was 0% each time. The inhibition in assay [14] and in assay [15] was over 90% each time.

Turning to `Nc1ncc(-c2cccc([N+](=O)[O-])c2F)cc1-c1ccc2c(c1)CCNC2=O`, the pIC50 in [1] was over 7.40. The inhibition in [2], in assay [3], in [4], in assay [5], in assay [6] and in assay [7] was 0% each time. In addition, the inhibition in assay [8] is 0%; in assay [9], 0%; in assay [10] it was 0%; in [11], over 100%; in [12] it was over 100%; in assay [13] it was over 100%. In addition, the inhibition in [14] and in [15] was over 90% in each case.

For `Nc1ncc(-c2ccc(NS(=O)(=O)C3CC3)cc2OC2CCCCC2)cc1-c1ccc2c(c1)CCNC2=O`, in assay [1], the pIC50 was over 7.40. Further, the inhibition in assay [2], in assay [3], in assay [4], in assay [5], in assay [6] and in [7] was 0% in each case. In addition, the inhibition in assay [8], in assay [9], in assay [10], in assay [11], in assay [12] and in [13] was 0% throughout. Besides, the inhibition in assay [14] is over 90%; in [15], 50%.

Consider `Nc1ncc(-c2ccc(NS(=O)(=O)C3CC3)cc2F)cc1-c1ccc2c(c1)CCNC2=O`, for which, in assay [1], the pIC50 is over 7.40. Besides, the inhibition in assay [2], in assay [3], in assay [4], in [5], in assay [6] and in [7] was 0% in each case. Besides, the inhibition in assay [8], in assay [9], in assay [10], in assay [11], in [12] and in [13] was 0% in each case. For the same molecule, the inhibition in [14] and in [15] was over 90% throughout.

Turning to `CN(C1CC1)S(=O)(=O)c1ccc(-c2cnc(N)c(-c3ccc4c(c3)CCNC4=O)c2)c(F)c1`, the negative logarithm of the IC50 (pIC50) in assay [1] was over 7.40. The inhibition in assay [2], in [3], in [4], in [5], in assay [6] and in assay [7] was 0% throughout. Moreover, the inhibition in assay [8], in [9], in [10], in assay [11], in assay [12] and in assay [13] was 0% each time. Moreover, the inhibition in assay [14] and in [15] was over 90% in each case.

(Values after ChEMBL document CHEMBL4804281, “STK4 inhibitors for treatment of hematologic malignancies” (2020).)
